Patent publication US20110015208A1, “PHARMACEUTICAL COMPOSITIONS CONTAINING DOPAMINE RECEPTOR LIGANDS AND METHODS OF TREATMENT USING DOPAMINE RECEPTOR LIGANDS” (priority 2007, published 2011)

Columns and labels:
[1] = tested on: basal locomotor activity of mice; test: Open field, basal locomotor activity of mice (Example 4A); type: in vivo, mouse; settings: test condition water; 400 mg/kg IP, 30 min pretreatment
Experimental: (§1) Cariprazine hydrochloride and escitalopram oxalate were evaluated for anti-manic effects using the amphetamine/chlordiazepoxide (AMPH/CDP) hyperactivity test.
(§2) Male C57B1/6J mice from Jackson Laboratories (Bar Harbor, Me.) were used in this study. Mice were received at 6-weeks of age. Upon receipt, mice were assigned unique identification numbers (tail marked) and were group housed with 4 mice/cage. All animals remained housed in groups of four during the remainder of the study. All mice were acclimated to the colony room for at least two weeks prior to testing and were subsequently tested at an average age of 8 weeks of age. During the period of acclimation, mice were examined on a regular basis, handled, and weighed to assure adequate health and suitability. Mice were maintained on a 12/12 light/dark cycle. The room temperature was maintained between 20 and 23° C. with a relative humidity maintained between 30% and 70%. Chow and water were provided ad libitum for the duration of the study. In each test, animals were randomly assigned across treatment groups.
(§3) Distance traveled is measured by consecutive beam breaks.
(§4) Data was analyzed by analysis of variance (ANOVA) followed by Fisher PLSD post-hoc analysis when appropriate. An effect was considered significant if p<0.05. Outliers that fell above and below two standard deviations from the mean were removed from the final analysis.

[2] = tested on: basal locomotor activity of mice; test: Open field, basal locomotor activity of mice (Example 4B); type: in vivo, mouse; settings: test condition water; 400 mg/kg IP
Experimental: as §1
(§5) Male C57B1/6J mice (8 weeks old) from Jackson Laboratories (Bar Harbor, Me.) were used in this study. Upon receipt, mice were assigned unique identification numbers (tail marked) and were group housed (4 mice/cage) in OPTI mouse ventilated cages. All animals remained housed in groups of four during the remainder of the study. During the period of acclimation, mice were examined on a regular basis, handled, and weighed to assure adequate health and suitability. Mice were maintained on a 12/12 light/dark cycle. The room temperature was maintained between 20 and 23° C. with a relative humidity maintained between 30% and 70%. Chow and water were provided ad libitum for the duration of the study. In each test, animals were randomly assigned across treatment groups.
as §3, §4

[3] = tested on: d-amphetamine/chlordiazepoxide mixture (AMPH/CDP)-induced hyperactivity in mice; test: d-Amphetamine/chlordiazepoxide (AMPH/CDP) hyperactivity test (Example 4A); type: in vivo, mouse; settings: test condition AMPH/CDP; 400 mg/kg IP, 30 min pretreatment
Experimental: as §1, §2
(§6) d-Amphetamine sulfate (Sigma, 4.0 mg/kg) and chlordiazepoxide (CDP; Sigma, 2.5 mg/kg) were dissolved in sterile water and were administered intraperitoneally at a dose volume of 10 ml/kg.
as §3, §4

[4] = tested on: d-amphetamine/chlordiazepoxide mixture (AMPH/CDP)-induced hyperactivity in mice; test: d-Amphetamine/chlordiazepoxide (AMPH/CDP) hyperactivity test (Example 4B); type: in vivo, mouse; settings: test condition AMPH/CDP; 400 mg/kg IP
Experimental: as §1, §5, §6, §3, §4

[5] = tested on: chronic mild stress (CMS) model of depression; test: Chronic mild stress (CMS) model of depression, sucrose consumption (Example 2); type: in vivo, rat; settings: imipramine 10 mg/kg IP once daily, stressed animals
Source text: This study evaluated the antidepressant effect of cariprazine hydrochloride in the chronic mild stress (CMS) model of depression. A comparison to the efficacy of the tricyciclic antidepressant compound imipramine was also made.
Male Wistar rats were adapted to laboratory and housing conditions for 3 weeks, followed by adoption to consumption of 1% sucrose solution for an additional 5 weeks before being separated into control and to-be-stressed groups.
Chronic stress was applied to the allocated group for seven weeks. The following stressors were used: food and/or water deprivation, cage tilting (45 degrees backwards), intermittent illumination, paired housing, soiled cage (250 mL of tap water in sawdust bedding), stroboscopic illumination (150 flashed per minute), no stress. All stressors were 10-14 hours in duration and were applied individually and continuously, once or twice weekly, during the day and at night.
Consumption of sucrose solution was measured in 1-hour tests conducted on all animals (i.e., controls and stressed) once weekly throughout the entire experiment. The tests were preceded by 14 hours of food and water deprivation. On the basis of their sucrose intakes following the initial 2 weeks of stress, both stressed and control animals received once-daily chronic (5 weeks) IP injections of vehicle (1% methyl cellulose, 1 mL/kg), cariprazine hydrochloride (0.0625, 0.25 or 1.0 mg/kg), or imipramine (10 mg/kg) as reference treatment. […] These animals were considered weak responders/non-responders and were eliminated from the analysis.

[6] = tested on: chronic mild stress (CMS) model of depression; test: Chronic mild stress (CMS) model of depression, sucrose consumption (Example 3); type: in vivo, rat; settings: imipramine, reference treatment in parallel studies
Source text: Similar to the study described in Example 2, additional studies were undertaken to further evaluate the antidepressant effect of cariprazine hydrochloride, administered alone, or in combination with escitalopram oxalate, in a chronic mild stress model of depression
In the chronic mild stress (CMS) model, rats subjected to a variety of mild stressors for a prolonged period of time show a substantial decrease in their responsiveness to rewarding stimuli. This deficit is usually monitored by a decrease in the consumption of a 1% sucrose solution, but can also be seen in other tests, such as place preference conditioning or intracranial self-stimulation. The subsensitivity to reward appears to reflect anhedonia (inability to experience pleasure), which is a core symptom of major depressive disorders. Clinically approved antidepressants have shown activity in this animal model by reversing the effects of CMS on sucrose consumption. See, e.g., Sanchez C, Gruca P, Papp M, Behavioural Pharmacology 14, 465-470, 2003.
Male Wistar rats (Charles River, Germany) were brought into the laboratory two months before the start of the experiment. Except as described below, the animals were singly housed with food and water freely available, and were maintained on a 12-h light/dark and in a constant temperature (22±2° C.) and humidity (50±5%) conditions.
The animals were first trained to consume a 1% sucrose solution; training consisted of nine 1 h baseline tests in which sucrose was presented, in the home cage, following 14 h food and water deprivation. The sucrose intake was measured by weighing pre-weighed bottles containing the sucrose solution, at the end of the test. Subsequently, sucrose consumption was monitored, under similar conditions, at weekly intervals throughout the whole experiment.
On the basis of their sucrose intakes in the final baseline test, the animals were divided into two matched groups. One group of animals was subjected to the chronic mild stress procedure for a period of 7 consecutive weeks. Each week of stress regime consisted of: two periods of food or water deprivation, two periods of 45 degree cage tilt, two periods of intermittent illumination (lights on and off every 2 h), two periods of soiled cage (250 ml water in sawdust bedding), one period of paired housing, two periods of low intensity stroboscopic illumination (150 flashes/min), and three periods of no stress. All stressors were 10-14 h of duration and were applied individually and continuously, day and night. Control animals were housed in separate rooms and had no contact with the stressed animals. They were deprived of food and water for 14 h preceding each sucrose test, but otherwise food and water were freely available in the home cage.

Structure (SMILES) | Total Distance Traveled [mean ± SEM] [1] [cm/60 min] | Total Distance Traveled [mean ± SEM] [2] [cm/60 min] | Total Distance Traveled [mean ± SEM] [3] [cm/60 min] | Total Distance Traveled [mean ± SEM] [4] [cm/60 min] | CMS-induced decrease in consumption of 1% sucrose solution ([5]; 5 weeks) | onset of action: effect on sucrose drinking evident at [5] [Week] | time until effect on sucrose consumption reached significance [6]
CCCC(CCC)C(=O)O [Valproate] | 4471 ± 298 | 3365 ± 612 | 17496 ± 1788 | 18478 ± 2961 |  |  | 
CN(C)CCCN1c2ccccc2CCc2ccccc21 [imipramine, reference compound] |  |  |  |  | fully reversed | 3 | after three weeks of administration
